Results taken from US20250177396A1, “POLO-LIKE KINASE 4 (PLK4) INHIBITORS, PHARMACEUTICAL COMPOSITIONS, METHODS OF PREPARATION AND USES THEREOF” (Repare Therapeutics Inc., priority 2022, published 2025).

molecular target: T1, PLK4 (Homo sapiens, UniProt O00444); test: PLK4 NanoBRET target engagement assay; assay type: binding; conditions: HEK293 T cells transfected with PLK4 NanoLuc fusion vector; K-5 tracer; 2 hrs incubation
T1 construct: expressed in transfected cells; host or cells: HEK293 T cells (ATCC CRL-3216)
T1 sequence (O00444 1-970): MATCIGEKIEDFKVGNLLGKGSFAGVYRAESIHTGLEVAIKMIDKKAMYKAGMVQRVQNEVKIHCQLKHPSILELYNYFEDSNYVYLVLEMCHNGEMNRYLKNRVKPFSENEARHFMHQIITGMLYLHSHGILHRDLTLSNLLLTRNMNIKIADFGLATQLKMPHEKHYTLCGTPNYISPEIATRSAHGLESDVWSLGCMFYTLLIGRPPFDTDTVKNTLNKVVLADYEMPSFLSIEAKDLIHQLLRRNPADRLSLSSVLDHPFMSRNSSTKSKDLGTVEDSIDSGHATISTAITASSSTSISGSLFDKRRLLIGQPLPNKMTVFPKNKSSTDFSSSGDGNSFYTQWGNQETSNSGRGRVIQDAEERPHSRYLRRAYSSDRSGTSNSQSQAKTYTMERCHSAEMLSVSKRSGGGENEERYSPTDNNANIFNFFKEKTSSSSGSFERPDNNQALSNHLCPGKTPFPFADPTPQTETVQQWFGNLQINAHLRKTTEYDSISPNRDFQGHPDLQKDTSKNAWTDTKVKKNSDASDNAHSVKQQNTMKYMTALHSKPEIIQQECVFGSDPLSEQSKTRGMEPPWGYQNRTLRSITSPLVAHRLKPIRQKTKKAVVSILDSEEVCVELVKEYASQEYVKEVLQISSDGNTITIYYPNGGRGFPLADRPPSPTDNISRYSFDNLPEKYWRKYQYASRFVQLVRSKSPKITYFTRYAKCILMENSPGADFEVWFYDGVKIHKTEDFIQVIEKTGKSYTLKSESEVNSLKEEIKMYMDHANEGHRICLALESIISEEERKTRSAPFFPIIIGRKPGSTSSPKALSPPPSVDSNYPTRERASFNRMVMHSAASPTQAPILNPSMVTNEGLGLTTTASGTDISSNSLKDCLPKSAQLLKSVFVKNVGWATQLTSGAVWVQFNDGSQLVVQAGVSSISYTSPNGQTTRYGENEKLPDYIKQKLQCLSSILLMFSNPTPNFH
Summary of the method: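 HEK293T cells transiently expressing PLK4-NanoLuc, plated at 17000 cells/well with K-5 tracer and compound, incubated 2 h at 37 °C/5% CO2. After substrate/inhibitor mix, 610/450 nm emission ratio ×1000 gave mBRET; IC50 from 4-parameter fit.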

In order of falling IC50:
1. Cc1cc(Nc2nc(N(C)c3c(F)cc(S(C)(=O)=O)cc3F)nc(-c3cnn(C)c3C(=O)O)c2C2CC2)n[nH]1 [Compound 289]  660 nM
2. COCc1cc(Nc2nc(N(C)c3c(F)cc(S(C)(=O)=O)cc3F)nc(-c3cnn(C)c3)c2C2CC2)n[nH]1 [Compound 341]  420 nM
3. Cc1cc(Nc2nc(N(C)c3c(F)cc(S(C)(=O)=O)cc3F)nc(N3CCO[C@H](C(F)(F)F)C3)c2C2CC2)n[nH]1 [Compound 299]  180 nM
4. CN(c1nc(Nc2n[nH]c3c2CCC3)c(C2CC2)c(-c2cnn(C)c2)n1)c1c(F)cc(S(C)(=O)=O)cc1F [Compound 285]  150 nM
5. Cc1cc(Nc2nc(N(C)c3c(F)cc(S(C)(=O)=O)cc3F)nc(N3CCO[C@@H](C(F)(F)F)C3)c2C2CC2)n[nH]1 [Compound 300]  150 nM
6. Cc1cc(Nc2nc(N(C)c3c(F)cc(S(C)(=O)=O)cc3F)nc(-c3cnn(C)c3C(O)(O)C(F)(F)F)c2C2CC2)n[nH]1 [Compound 306]  94 nM
7. COc1cc(F)c(N(C)c2nc(Nc3cc(C)[nH]n3)c(C3CC3)c(-c3cn(C)cn3)n2)c(F)c1 [Compound 338]  77 nM
8. CN(c1nc(Nc2cc(C#N)[nH]n2)c(C2CC2)c(-c2cnn(C)c2)n1)c1c(F)cc(S(C)(=O)=O)cc1F [Compound 295]  75 nM
9. Cc1cc(Nc2nc(N(C)c3c(F)cc(Cl)cc3F)nc(-c3cn(C)cn3)c2C2CC2)n[nH]1 [Compound 337]  62 nM
10. Cc1cc(Nc2nc(N(C)c3c(F)cc(S(C)(=O)=O)cc3F)nc(Nc3ccn(C)n3)c2C2CC2)n[nH]1 [Compound 325]  52 nM
11. Cc1cc(Nc2nc(N(C)c3c(F)cc(S(C)(=O)=O)cc3F)nc(Nc3cnccn3)c2C2CC2)n[nH]1 [Compound 328]  51 nM
12. Cc1cc(Nc2nc(N(C)c3c(F)cc(S(C)(=O)=O)cc3F)nc(-c3ncn(C)c3C)c2C2CC2)n[nH]1 [Compound 283]  45 nM
13. Cc1cc(Nc2nc(N(C)c3c(F)cc(Br)cc3F)nc(-c3cn(C)cn3)c2C2CC2)n[nH]1 [Compound 335]  43 nM
14. Cc1cc(Nc2nc(N(C)c3c(F)cc(S(C)(=O)=O)cc3F)nc(Nc3cnn(C)c3)c2C2CC2)n[nH]1 [Compound 334]  37 nM
15. Cc1cc(Nc2nc(N(C)c3c(F)cc(S(C)(=O)=O)cc3F)nc(N3CCC[C@@H]3C#N)c2C2CC2)n[nH]1 [Compound 332]  33 nM
16. Cc1cc(Nc2nc(N(C)c3c(F)cc(S(C)(=O)=O)cc3F)nc(-c3cnc4ccc(F)cn34)c2C2CC2)n[nH]1 [Compound 310]  31 nM
17. Cc1cc(Nc2nc(N(C)c3c(F)cc(S(C)(=O)=O)cc3F)nc(-c3cn[nH]c3C#N)c2C2CC2)n[nH]1 [Compound 317]  27 nM
18. Cc1cc(Nc2nc(N(C)c3c(F)cc(C4CC4)cc3F)nc(-c3cn(C)cn3)c2C2CC2)n[nH]1 [Compound 343]  26 nM
19. Cc1cc(Nc2nc(N(C)c3c(F)cc(S(C)(=O)=O)cc3F)nc(-c3cc4[nH]c(=O)ccn4n3)c2C2CC2)n[nH]1 [Compound 286]  24 nM
20. COc1cc(Nc2nc(N(C)c3c(F)cc(S(C)(=O)=O)cc3F)nc(-c3cnn(C)c3)c2C2CC2)n[nH]1 [Compound 292]  24 nM
21. Cc1cc(Nc2nc(N(C)c3c(F)cc(C#N)cc3F)nc(-c3cn(C)cn3)c2C2CC2)n[nH]1 [Compound 339]  24 nM
22. CN(c1nc(Nc2cc(C3CC3)[nH]n2)c(C2CC2)c(-c2cn(C)cn2)n1)c1ccc(S(C)(=O)=O)cc1F [Compound 315]  23 nM
23. Cc1cc(Nc2nc(N(C)c3c(F)cc(S(C)(=O)=O)cc3F)nc(-c3cnn4ccncc34)c2C2CC2)n[nH]1 [Compound 288]  22 nM
24. CC(=O)c1c(-c2nc(N(C)c3c(F)cc(S(C)(=O)=O)cc3F)nc(Nc3cc(C)[nH]n3)c2C2CC2)cnn1C [Compound 307]  19 nM
25. Cc1cc(Nc2nc(N(C)c3c(F)cc(S(C)(=O)=O)cc3F)nc(Nc3cc(C)[nH]n3)c2C2CC2)n[nH]1 [Compound 313]  18 nM
26. Cc1cc(Nc2nc(N(C)c3c(F)cc(S(C)(=O)=O)cc3F)nc(-c3cnn(C)c3C(O)C(F)(F)F)c2C2CC2)n[nH]1 (stereo not drawn) [Compound 305]  16 nM
27. Cc1cc(Nc2nc(N(C)c3c(F)cc(S(C)(=O)=O)cc3F)nc(-c3cnn(C)c3C(C)O)c2C2CC2)n[nH]1 (stereo not drawn) [Compound 312]  15 nM
28. Cc1cc(Nc2nc(N(C)c3c(F)cc(S(C)(=O)=O)cc3F)nc(-c3cn(C)c(C(=O)N(C)C)n3)c2C2CC2)n[nH]1 [Compound 293]  14 nM
29. CN(c1nc(Nc2cc(C3CC3)[nH]n2)c(C2CC2)c(-c2cnn(CC(C)(C)O)c2)n1)c1c(F)cc(S(C)(=O)=O)cc1F [Compound 297]  14 nM
30. COC(C)(C)c1c(-c2nc(N(C)c3c(F)cc(S(C)(=O)=O)cc3F)nc(Nc3cc(C)[nH]n3)c2C2CC2)cnn1C [Compound 311]  14 nM
31. CN(c1nc(Nc2cc(C3CC3)[nH]n2)c(C2CC2)c(-c2ccnn2C2CC2)n1)c1c(F)cc(S(C)(=O)=O)cc1F [Compound 331]  14 nM
32. Cc1cc(Nc2nc(N(C)c3c(F)cc(S(C)(=O)=O)cc3F)nc(-c3cn(C)c(C4(O)CCC4)n3)c2C2CC2)n[nH]1 [Compound 322]  12 nM
33. CN(c1nc(Nc2cc(C3CC3)[nH]n2)c(C2CC2)c(-c2cn(C)cn2)n1)c1cc(F)c(S(C)(=O)=O)cc1F [Compound 298]  11 nM
34. Cc1cc(Nc2nc(N(C)c3c(F)cc(S(C)(=O)=O)cc3F)nc(-c3cc(C(N)=O)n(C)n3)c2C2CC2)n[nH]1 [Compound 321]  11 nM
35. Cc1cc(Nc2nc(N(C)c3c(F)cc(S(C)(=O)=O)cc3F)nc(-c3cnn(C)c3C(=O)N(C)C3CC3)c2C2CC2)n[nH]1 [Compound 333]  11 nM
36. Cc1cc(Nc2nc(N(C)c3c(F)cc(S(C)(=O)=O)cc3F)nc(-c3cn(C)c(C(C)(C)O)n3)c2C2CC2)n[nH]1 [Compound 323]  10 nM
37. Cc1cc(Nc2nc(N(C)c3c(F)cc(S(C)(=O)=O)cc3F)nc(-c3cnn(C)c3C(C)(C)O)c2C2CC2)n[nH]1 [Compound 294]  9 nM
38. Cc1cc(Nc2nc(N(C)c3c(F)cc(S(C)(=O)=O)cc3F)nc(-c3cnn4cccnc34)c2C2CC2)n[nH]1 [Compound 326]  9 nM
39. Cc1cc(Nc2nc(N(C)c3c(F)cc(S(C)(=O)=O)cc3F)nc(-c3cn(CC(C)(C)O)nc3C)c2C2CC2)n[nH]1 [Compound 330]  9 nM
40. Cc1cc(Nc2nc(N(C)c3c(F)cc(S(C)(=O)=O)cc3F)nc(-c3cnc4n3CCOC4)c2C2CC2)n[nH]1 [Compound 302]  8 nM
41. Cc1cc(Nc2nc(N(C)c3c(F)cc(S(C)(=O)=O)cc3F)nc(-c3cnn(C)c3N3CCCC3=O)c2C2CC2)n[nH]1 [Compound 304]  8 nM
42. Cc1cc(Nc2nc(N(C)c3c(F)cc(S(C)(=O)=O)cc3F)nc(-c3cnn(CC(C)(C)O)c3C)c2C2CC2)n[nH]1 [Compound 336]  8 nM
43. CN(c1nc(Nc2cc(C3CC3)[nH]n2)c(C2CC2)c(-c2cn(C)c(C#N)n2)n1)c1c(F)cc(S(C)(=O)=O)cc1F [Compound 287, 4-(5-cyclopropyl-6-((5-cyclopropyl-1H-pyrazol-3-yl)amino)-2-((2,6-difluoro-4-(methylsulfonyl)phenyl)(methyl)amino)pyrimidin-4-yl)-1-methyl-1H-imidazole-2-carbonitrile]  6 nM
44. Cc1cc(Nc2nc(N(C)c3c(F)cc(S(C)(=O)=O)cc3F)nc(-c3cn[nH]c3C3CC3)c2C2CC2)n[nH]1 [Compound 316]  5 nM
45. Cc1cc(Nc2nc(N(C)c3c(F)cc(S(C)(=O)=O)cc3F)nc(-c3cc(C(=O)N(C)C)n(C)n3)c2C2CC2)n[nH]1 [Compound 319]  5 nM
46. Cc1cc(Nc2nc(N(C)c3c(F)cc(S(C)(=O)=O)cc3F)nc(-c3cnn(C)c3N(C)C)c2C2CC2)n[nH]1 [Compound 320]  4 nM
47. Cc1cc(Nc2nc(N(C)c3c(F)cc(S(C)(=O)=O)cc3F)nc(-c3cn(C)nc3CC#N)c2C2CC2)n[nH]1 [Compound 329]  4 nM
48. Cc1cc(Nc2nc(N(C)c3c(F)cc(S(C)(=O)=O)cc3F)nc(-c3cc(CC#N)n(C)n3)c2C2CC2)n[nH]1 [Compound 340]  4 nM
49. Cc1cc(Nc2nc(N(C)c3c(F)cc(S(C)(=O)=O)cc3F)nc(-c3cnn(C)c3N3CCOC3=O)c2C2CC2)n[nH]1 [Compound 342]  4 nM
50. COC1CCc2nc(-c3nc(N(C)c4c(F)cc(S(C)(=O)=O)cc4F)nc(Nc4cc(C)[nH]n4)c3C3CC3)cn2C1 (stereo not drawn) [Compound 324]  3 nM
51. Cc1cc(Nc2nc(N(C)c3c(F)cc(S(C)(=O)=O)cc3F)nc(-c3cnn(C)c3CC#N)c2C2CC2)n[nH]1 [Compound 308]  2 nM
